pIC50: −log10 of the molar value. Converted amounts (≈) assume the structure as drawn. A value given as a limit tells only on which side of the number the result lay.

Data set [1] is described as follows: Tmax in human at 1 to 20 mg. Format: ADME, organism-based. The note with it: in vivo.
The test system of another data set is Rattus norvegicus. Briefly: Inhibition of adipose triacylglycerol synthesis in 14 hrs fasted Han-Wistar rat assessed as decrease in ratio of [3H]palmitic acid incorporation in to TAG and DAG at 8 mg/kg administered orally and measured 1.5 hrs post dose relative to control.
The target of data set [2] is cAMP and cAMP-inhibited cGMP 3',5'-cyclic phosphodiesterase 10A (Homo sapiens, UniProt Q9Y233). The data set is described as follows: Inhibition of PDE10A1 […].
Chain of cAMP and cAMP-inhibited cGMP 3',5'-cyclic phosphodiesterase 10A (Q9Y233 whole entry): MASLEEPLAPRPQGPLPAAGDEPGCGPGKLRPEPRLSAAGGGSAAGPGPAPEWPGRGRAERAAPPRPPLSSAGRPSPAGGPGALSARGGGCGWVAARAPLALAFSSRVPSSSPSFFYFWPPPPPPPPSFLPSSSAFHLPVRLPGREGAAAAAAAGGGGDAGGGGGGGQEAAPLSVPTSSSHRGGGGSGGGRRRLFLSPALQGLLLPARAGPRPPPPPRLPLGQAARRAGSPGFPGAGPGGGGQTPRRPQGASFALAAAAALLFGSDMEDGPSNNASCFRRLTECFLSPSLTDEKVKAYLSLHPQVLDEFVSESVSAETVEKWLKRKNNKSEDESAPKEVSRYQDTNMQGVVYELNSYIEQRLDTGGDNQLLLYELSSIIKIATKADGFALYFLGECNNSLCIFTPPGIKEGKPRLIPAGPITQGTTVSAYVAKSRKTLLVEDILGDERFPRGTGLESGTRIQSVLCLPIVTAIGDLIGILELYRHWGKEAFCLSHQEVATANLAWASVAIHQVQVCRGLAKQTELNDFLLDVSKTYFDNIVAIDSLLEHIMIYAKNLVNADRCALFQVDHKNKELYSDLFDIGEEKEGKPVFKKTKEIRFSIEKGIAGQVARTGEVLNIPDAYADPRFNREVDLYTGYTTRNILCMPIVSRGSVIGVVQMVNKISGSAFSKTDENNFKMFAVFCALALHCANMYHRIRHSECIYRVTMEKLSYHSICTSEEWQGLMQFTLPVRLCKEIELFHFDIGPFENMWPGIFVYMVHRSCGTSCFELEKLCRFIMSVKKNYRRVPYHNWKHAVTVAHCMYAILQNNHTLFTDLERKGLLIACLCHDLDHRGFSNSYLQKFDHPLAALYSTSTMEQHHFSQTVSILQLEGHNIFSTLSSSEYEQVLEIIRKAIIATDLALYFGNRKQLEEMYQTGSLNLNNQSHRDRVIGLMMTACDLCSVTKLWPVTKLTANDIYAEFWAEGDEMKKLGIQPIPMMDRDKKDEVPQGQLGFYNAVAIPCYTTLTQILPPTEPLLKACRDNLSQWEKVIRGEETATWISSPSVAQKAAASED
Data set [3] addresses T1, Muscarinic acetylcholine receptor M2 (Homo sapiens, UniProt P08172).
T1 sequence (P08172 whole entry): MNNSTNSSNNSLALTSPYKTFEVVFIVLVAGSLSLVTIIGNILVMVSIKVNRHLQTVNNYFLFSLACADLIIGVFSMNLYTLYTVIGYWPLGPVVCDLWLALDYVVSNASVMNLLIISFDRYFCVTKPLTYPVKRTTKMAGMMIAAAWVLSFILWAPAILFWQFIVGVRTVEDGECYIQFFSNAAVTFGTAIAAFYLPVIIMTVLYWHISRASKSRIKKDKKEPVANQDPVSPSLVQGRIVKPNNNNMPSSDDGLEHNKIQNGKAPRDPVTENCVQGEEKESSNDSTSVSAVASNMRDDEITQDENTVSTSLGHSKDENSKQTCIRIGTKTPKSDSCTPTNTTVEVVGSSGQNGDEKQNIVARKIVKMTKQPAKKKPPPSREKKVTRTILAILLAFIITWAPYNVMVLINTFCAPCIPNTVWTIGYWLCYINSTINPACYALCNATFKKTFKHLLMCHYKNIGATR
The data set is described as follows: Inhibition of muscarinic M2 receptor.

Data set [4] is described as follows: Volume of distribution in Beagle dog at 27.2 uM/kg, po or 1.4 uM/kg, iv. Format: ADME, organism-based, Canis lupus familiaris. The settings on record: in vivo.
A short description of data set [5]: Clearance in Beagle dog at 27.2 uM/kg, po or 1.4 uM/kg, iv. The settings on record: in vivo. In kind it is ADME, organism-based, Canis lupus familiaris.
Data set [6] in a line: Clearance in Han-Wistar rat at 5.4 uM/kg, po or 2.7 uM/kg, iv. Format: ADME, organism-based. The settings on record: in vivo.
Data set [7] is described as follows: Intrinsic clearance in dog hepatocytes assessed as parent compound disappearance at 1 uM per 10^6 cells. The settings on record: read-out: CLH. Format: ADME, cell-based, Canis lupus familiaris, Hepatocyte.
Data set [8] is described as follows: Intrinsic clearance in mouse hepatocytes assessed as parent compound disappearance at 1 uM per 10^6 cells. Format: ADME, cell-based, Hepatocyte. The note with it: read-out: CLH.
Data set [9] in a line: Intrinsic clearance in human hepatocytes assessed as parent compound disappearance at 1 uM per 10^6 cells. In kind it is ADME, cell-based, Hepatocyte. The settings on record: read-out: CLH.
The next data set addresses Cytochrome P450 2C19 (Homo sapiens, UniProt P33261). Briefly: Inhibition of CYP2C19. In kind it is ADME.
The nature of data set [10]: Fraction unbound in dog plasma. Format: ADME, cell-free, Canis lupus familiaris.
Data set [11] in a line: Fraction unbound in rat plasma. Format: ADME, cell-free.
Data set [12] has as its target T2, Diacylglycerol O-acyltransferase 1 (Mus musculus, UniProt Q9Z2A7).
T2 sequence (Q9Z2A7 whole entry): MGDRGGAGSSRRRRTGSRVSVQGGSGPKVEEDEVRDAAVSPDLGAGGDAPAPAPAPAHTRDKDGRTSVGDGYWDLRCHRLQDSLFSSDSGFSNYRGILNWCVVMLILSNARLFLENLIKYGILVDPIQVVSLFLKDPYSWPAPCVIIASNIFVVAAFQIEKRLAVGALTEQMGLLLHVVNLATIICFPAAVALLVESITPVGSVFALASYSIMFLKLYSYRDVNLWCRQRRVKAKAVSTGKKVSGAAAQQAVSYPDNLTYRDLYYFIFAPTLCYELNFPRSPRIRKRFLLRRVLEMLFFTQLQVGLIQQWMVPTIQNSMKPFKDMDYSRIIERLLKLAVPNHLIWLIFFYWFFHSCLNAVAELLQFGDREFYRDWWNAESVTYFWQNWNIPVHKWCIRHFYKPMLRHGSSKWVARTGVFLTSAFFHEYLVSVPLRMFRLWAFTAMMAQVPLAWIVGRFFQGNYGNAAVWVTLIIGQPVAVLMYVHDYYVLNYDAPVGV
The data set is described as follows: Inhibition of DGAT1 in mouse liver microsomes. Set-up: species or system Microsome. (In general: Microsomes from liver hold many membrane-bound enzymes, among them those of drug oxidation.)

Data set [13] concerns the target T3, Diacylglycerol O-acyltransferase 1 (Rattus norvegicus, UniProt Q9ERM3).
T3 sequence (Q9ERM3 whole entry): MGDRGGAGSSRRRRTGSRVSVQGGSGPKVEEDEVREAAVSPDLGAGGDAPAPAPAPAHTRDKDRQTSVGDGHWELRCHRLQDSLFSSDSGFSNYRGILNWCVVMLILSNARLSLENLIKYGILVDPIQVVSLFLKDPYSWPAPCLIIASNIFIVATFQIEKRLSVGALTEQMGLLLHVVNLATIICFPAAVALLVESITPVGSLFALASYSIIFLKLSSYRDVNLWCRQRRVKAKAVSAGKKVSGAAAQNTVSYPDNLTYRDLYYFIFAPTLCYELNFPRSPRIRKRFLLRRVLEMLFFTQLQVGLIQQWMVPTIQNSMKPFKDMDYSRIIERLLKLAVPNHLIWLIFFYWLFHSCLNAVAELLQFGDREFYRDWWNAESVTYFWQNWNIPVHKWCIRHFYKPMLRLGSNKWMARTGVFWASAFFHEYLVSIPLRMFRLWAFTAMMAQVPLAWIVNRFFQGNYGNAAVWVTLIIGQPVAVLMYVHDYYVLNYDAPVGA
The data set is described as follows: Inhibition of DGAT1 in rat adipose tissue assessed as reduction in triacylglycerol synthesis. In kind it is tissue-based.

For data set [14], the target named is T3, Diacylglycerol O-acyltransferase 1. The data set is described as follows: Inhibition of DGAT1 in rat liver microsomes. Set-up: species or system Microsome.
For data set [15], the target named is T4, Diacylglycerol O-acyltransferase 1 (Homo sapiens, UniProt O75907).
T4 sequence (O75907 whole entry): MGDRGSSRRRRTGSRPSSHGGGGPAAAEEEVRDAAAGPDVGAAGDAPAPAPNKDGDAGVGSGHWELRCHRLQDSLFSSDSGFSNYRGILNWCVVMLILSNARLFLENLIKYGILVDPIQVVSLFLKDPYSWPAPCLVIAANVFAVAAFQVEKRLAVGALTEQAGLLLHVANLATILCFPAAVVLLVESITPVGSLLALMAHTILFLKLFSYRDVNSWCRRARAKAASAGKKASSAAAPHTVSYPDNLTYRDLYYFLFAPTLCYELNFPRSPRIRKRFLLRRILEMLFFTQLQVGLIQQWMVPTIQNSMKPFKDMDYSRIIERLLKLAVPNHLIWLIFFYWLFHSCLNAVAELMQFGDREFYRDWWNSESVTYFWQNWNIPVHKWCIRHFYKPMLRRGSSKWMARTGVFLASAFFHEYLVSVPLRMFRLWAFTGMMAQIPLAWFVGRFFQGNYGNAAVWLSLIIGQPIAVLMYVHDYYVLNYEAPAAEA
The data set is described as follows: Inhibition of DGAT1 in human HuTu80 cells. Format: cell-based.

Data set [16] addresses T4, Diacylglycerol O-acyltransferase 1. The data set is described as follows: Inhibition of DGAT1 in human adipose tissue assessed as reduction in triacylglycerol synthesis.
The target is the same in data set [17]. Briefly: Inhibition of DGAT1 in human liver microsomes. More on the design: species or system Microsome.
A short description of data set [18]: Solubility in 0.1 M phosphate buffer at pH 7.4 at 25 degC incubated for 24 hrs.
A short description of data set [19]: Volume of distribution in C57BL/6 mouse at 8.16 uM/kg, po or 5.4 uM/kg, iv. Format: ADME, organism-based. The settings on record: in vivo.
Data set [20] in a line: Clearance in C57BL/6 mouse at 8.16 uM/kg, po or 5.4 uM/kg, iv. Format: ADME, organism-based. The note with it: in vivo.

Chain of Cytochrome P450 2C19 (P33261 whole entry): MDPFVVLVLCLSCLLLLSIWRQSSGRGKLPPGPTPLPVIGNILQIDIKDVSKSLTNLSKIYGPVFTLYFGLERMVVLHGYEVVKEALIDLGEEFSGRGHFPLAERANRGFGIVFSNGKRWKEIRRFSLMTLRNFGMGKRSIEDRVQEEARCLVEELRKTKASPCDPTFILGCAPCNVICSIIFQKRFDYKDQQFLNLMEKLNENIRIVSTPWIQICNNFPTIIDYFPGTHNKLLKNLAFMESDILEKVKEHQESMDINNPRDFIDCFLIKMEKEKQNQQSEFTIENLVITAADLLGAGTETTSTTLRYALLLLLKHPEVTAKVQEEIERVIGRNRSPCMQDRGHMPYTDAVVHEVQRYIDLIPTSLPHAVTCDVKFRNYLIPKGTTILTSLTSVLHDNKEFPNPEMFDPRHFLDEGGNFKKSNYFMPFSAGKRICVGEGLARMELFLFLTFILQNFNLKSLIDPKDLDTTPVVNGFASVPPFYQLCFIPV

Consider `Cc1nc(C)c(-c2ccc(C3CCC(CC(=O)O)CC3)cc2)nc1C(N)=O` (configuration not stated) [AZD-7687], for which the Tmax in data set [1] is at most 1 h. In addition, the pIC50 in the data set on Rattus norvegicus was 6.88; in data set [2] it was 5.26; in data set [3] it was 4.09; on Cytochrome P450 2C19, under 4.52; in [12], 7.00; in [13], 7.05. Besides, the pIC50 is 6.82 in data set [14], 8.00 in data set [15], 8.00 in data set [16] and 7.15 in data set [17]. For the same molecule, the results for the Vd in data set [4] and in data set [19] were 1 L/kg and 0.9 L/kg, respectively. In addition, the clearance came out at 1.2 mL/min/kg in data set [5], 0.5 mL/min/kg in data set [6] and 0.77 mL/min/kg in [20]. The hepatocyte CLint at 1 µM in data set [7] is 5.5 µL/min/1e6 cells; in data set [8], 7.3 µL/min/1e6 cells; in [9], under 2 µL/min/1e6 cells. Besides, the unbound share (fraction unbound) worked out at 0.06 in data set [10] and 0.03 in data set [11]. This molecule also showed a solubility at 24 h in data set [18] of 700 µM (≈ 257 µg/mL).

For orientation: Tmax means the time from dosing to the highest level. The term pIC50 denotes −log10 of the IC50, conventionally taken in molar units. As usually defined, the fraction unbound is the share of the substance not bound to proteins or other matrix. Read a low fraction unbound as little free substance. In general, solubility refers to the concentration that dissolves in the medium under given conditions. A high value points to a readily soluble substance.

The values above are taken from ChEMBL document CHEMBL2176918, “Design and optimization of pyrazinecarboxamide-based inhibitors of diacylglycerol acyltransferase 1 (DGAT1) leading to a clinical candidate dimethylpyrazinecarboxamide phenylcyclohexylacetic acid (AZD7687)” (J Med Chem, 2012).
